Test results from ChEMBL document CHEMBL1201862, “PubChem BioAssay data set” (2004).
Each block holds one compound with its values, some of them ahead of it. Activity calls are given as the source filed them.

Tests used:
BJ [1] = assay: cytotoxicity toward BJ-TERT fibroblasts, dose response, cell-based, RAS-independent, luminescence (AID 1933); assay type: functional; conditions: Homo sapiens
BJ [2] = assay: cells; assay type: functional, cell-based; conditions: Homo sapiens
J774.A1 = assay: Confirmation of image-based Screening Assay for Inhibitors of Phagocytosis. [Related pubchem assays (depositor defined):AID1029, AID1643]; assay type: functional, cell-based; conditions: Mus musculus
BJ [3] = assay: cytotoxicity toward BJ-TERT-LT-ST fibroblasts, dose response, cell-based, RAS-independent, luminescence (AID 1935); assay type: functional; conditions: Homo sapiens;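 also: BJ fibroblasts immortalized with TERT plus LT and ST oncogenes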
[4] = cytotoxicity toward DRD oncogenic fibroblasts, dose response, cell-based, non-viral oncogenic, luminescence (AID 1934); assay type: functional; conditions: Homo sapiens
[5] = cytotoxicity in HEK-293T cells, dose response, cytotoxicity control for TCR NF-kB inhibitor project, luminescence, T-cell screen hits (AID 489026); assay type: functional, cell-based;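 also: cells exposed to compound about 14 hours before the viability readout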
[6] = target: T1, Neuropeptides B/W receptor type 1 (Homo sapiens, UniProt P48145); assay: Fluorescence-based dose response cell-based high throughput screening assay to identify antagonists of the G-protein coupled receptor 7 (GPR7). [Related pubchem assays: 1952 (Screening assay (GPR7 antagonists).), 1880 (Summary AID.)]; assay type: functional
T1 sequence (P48145 whole entry): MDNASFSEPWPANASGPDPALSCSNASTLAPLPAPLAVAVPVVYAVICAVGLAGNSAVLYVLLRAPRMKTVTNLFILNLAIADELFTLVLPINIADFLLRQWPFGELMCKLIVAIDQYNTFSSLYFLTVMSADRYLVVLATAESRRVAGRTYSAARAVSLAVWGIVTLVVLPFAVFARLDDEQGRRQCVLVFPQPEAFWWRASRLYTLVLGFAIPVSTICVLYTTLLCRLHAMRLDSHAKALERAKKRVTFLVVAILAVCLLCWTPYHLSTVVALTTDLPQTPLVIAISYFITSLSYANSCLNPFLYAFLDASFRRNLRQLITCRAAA

[7] = target: Melanin-concentrating hormone receptor 1 (Homo sapiens, UniProt Q99705); assay: Fluorescence-based counterscreen for antagonists of the G-protein coupled receptor 7 (GPR7): cell-based high throughput dose response assay to identify antagonists of the melanin-concentrating hormone receptor 1 (MCHR1).; assay type: functional
[8] = target: Heat shock protein HSP 90-alpha (Homo sapiens, UniProt P07900); assay type: functional, organism-based
[9] = target: Lysosomal acid glucosylceramidase (Homo sapiens, UniProt P04062); assay: Dose response cell-based high throughput screening assay to identify enhancers of beta-glucosidase activity. [Related pubchem assays: 784 ]; assay type: functional
[10] = target: Intestinal-type alkaline phosphatase (Homo sapiens, UniProt P09923); assay: Dose Response confirmation of uHTS hits from a small molecule inhibitors of human intestinal alkaline phosphatase via a luminescent assay. [Related pubchem assays (depositor defined):AID2544, AID2574]; assay type: functional
[11] = C. albicans growth with fluconazole, confirmation, fluorescence, retest (AID 2467); assay type: functional, cell-based
Saccharomyces cerevisiae = assay: NALP1 inhibitor project selectivity study, Caspase-1/ASC signal blockade IC50 in S. cerevisiae (AID 488863); assay type: functional, organism-based
[12] = target: NACHT, LRR and PYD domains-containing protein 1 (Homo sapiens, UniProt Q9C000); assay: NALP1 inhibitors in yeast, dose response, luminescent (AID 488860); assay type: functional
[13] = target: C-C chemokine receptor type 6 (Homo sapiens, UniProt P51684); assay: CCR6 receptor antagonists, dose response, cell-based, luminescent beta-arrestin readout (AID 504728); assay type: functional
Beta-galactosidase = Beta-galactosidase (Escherichia coli, UniProt Q8VNN2); assay: beta-galactosidase enzyme inhibitors and activators, dose response, artefact control for CCR6 antagonist project, biochemical, E. coli enzyme, set 3 (AID 504712); assay type: functional
Chain of Beta-galactosidase (Q8VNN2 whole entry): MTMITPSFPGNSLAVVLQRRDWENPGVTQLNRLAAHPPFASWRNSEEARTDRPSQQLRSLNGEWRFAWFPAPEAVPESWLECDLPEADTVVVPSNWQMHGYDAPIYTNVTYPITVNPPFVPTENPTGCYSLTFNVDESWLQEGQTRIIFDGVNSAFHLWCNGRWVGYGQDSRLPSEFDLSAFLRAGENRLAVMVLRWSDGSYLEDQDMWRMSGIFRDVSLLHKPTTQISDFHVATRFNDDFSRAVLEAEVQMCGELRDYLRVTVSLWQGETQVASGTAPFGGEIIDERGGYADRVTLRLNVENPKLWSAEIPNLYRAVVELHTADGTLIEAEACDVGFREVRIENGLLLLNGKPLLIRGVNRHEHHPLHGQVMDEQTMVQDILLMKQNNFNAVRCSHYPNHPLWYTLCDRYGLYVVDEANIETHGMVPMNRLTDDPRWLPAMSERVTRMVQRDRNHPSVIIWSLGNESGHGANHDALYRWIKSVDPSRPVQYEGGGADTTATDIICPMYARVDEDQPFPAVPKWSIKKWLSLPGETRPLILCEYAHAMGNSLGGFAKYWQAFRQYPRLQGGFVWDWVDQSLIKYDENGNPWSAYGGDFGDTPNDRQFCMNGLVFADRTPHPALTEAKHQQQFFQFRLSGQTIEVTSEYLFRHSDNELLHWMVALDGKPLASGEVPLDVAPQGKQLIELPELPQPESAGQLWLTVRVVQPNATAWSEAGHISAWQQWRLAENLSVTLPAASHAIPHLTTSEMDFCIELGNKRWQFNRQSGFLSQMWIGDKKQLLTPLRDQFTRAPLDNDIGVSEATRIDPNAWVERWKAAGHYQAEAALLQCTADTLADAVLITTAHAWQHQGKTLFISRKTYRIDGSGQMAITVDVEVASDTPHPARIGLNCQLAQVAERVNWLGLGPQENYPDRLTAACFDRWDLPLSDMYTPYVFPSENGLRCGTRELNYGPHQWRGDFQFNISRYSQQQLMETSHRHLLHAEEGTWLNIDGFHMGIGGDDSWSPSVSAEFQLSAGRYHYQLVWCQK

Chain of Intestinal-type alkaline phosphatase (P09923 whole entry): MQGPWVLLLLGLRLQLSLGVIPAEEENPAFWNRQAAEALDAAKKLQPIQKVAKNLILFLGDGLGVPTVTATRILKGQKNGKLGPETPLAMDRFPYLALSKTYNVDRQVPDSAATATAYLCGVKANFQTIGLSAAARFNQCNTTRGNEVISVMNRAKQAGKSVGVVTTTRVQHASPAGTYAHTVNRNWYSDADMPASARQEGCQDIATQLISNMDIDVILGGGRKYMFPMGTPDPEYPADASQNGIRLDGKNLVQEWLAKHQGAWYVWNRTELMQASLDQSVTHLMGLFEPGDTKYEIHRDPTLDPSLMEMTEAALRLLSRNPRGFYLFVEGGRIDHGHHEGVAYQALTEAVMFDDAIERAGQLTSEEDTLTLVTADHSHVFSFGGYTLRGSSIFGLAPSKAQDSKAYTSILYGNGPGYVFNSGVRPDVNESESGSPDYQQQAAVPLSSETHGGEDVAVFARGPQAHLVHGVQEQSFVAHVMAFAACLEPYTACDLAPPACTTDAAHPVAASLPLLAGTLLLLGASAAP
Chain of NACHT, LRR and PYD domains-containing protein 1 (Q9C000 1-1212 limits assumed): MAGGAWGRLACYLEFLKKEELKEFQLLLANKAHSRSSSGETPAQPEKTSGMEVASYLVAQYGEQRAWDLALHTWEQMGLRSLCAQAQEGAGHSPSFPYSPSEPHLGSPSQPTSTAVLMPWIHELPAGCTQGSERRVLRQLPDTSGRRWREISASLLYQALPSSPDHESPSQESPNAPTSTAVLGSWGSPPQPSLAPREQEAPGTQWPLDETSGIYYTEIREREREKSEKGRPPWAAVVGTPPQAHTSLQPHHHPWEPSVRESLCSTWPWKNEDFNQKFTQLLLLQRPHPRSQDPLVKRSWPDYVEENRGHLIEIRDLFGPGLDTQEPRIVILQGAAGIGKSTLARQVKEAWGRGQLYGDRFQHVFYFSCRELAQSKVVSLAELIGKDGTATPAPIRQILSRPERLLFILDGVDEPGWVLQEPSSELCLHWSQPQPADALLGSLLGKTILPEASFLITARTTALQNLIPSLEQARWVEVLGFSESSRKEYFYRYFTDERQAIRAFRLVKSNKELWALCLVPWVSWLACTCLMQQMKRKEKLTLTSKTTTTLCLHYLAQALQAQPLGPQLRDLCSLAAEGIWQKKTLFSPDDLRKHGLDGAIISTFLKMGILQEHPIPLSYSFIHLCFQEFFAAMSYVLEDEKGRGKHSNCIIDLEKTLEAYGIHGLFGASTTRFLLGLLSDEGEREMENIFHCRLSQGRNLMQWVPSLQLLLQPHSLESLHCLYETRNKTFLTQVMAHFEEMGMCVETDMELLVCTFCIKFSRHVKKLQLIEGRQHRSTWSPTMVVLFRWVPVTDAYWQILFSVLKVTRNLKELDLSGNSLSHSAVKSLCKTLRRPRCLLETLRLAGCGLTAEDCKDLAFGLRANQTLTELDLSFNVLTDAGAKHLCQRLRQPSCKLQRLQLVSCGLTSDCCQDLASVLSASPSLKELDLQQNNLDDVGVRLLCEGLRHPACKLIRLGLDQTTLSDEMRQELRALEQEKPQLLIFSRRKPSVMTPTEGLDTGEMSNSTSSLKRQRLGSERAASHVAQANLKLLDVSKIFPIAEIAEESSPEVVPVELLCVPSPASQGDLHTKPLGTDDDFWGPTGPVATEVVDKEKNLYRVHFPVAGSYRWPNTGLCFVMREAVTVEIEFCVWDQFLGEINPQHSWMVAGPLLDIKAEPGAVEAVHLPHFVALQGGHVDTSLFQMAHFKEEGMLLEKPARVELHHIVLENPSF
Chain of NACHT, LRR and PYD domains-containing protein 1 (Q9C000 1213-1473 limits assumed): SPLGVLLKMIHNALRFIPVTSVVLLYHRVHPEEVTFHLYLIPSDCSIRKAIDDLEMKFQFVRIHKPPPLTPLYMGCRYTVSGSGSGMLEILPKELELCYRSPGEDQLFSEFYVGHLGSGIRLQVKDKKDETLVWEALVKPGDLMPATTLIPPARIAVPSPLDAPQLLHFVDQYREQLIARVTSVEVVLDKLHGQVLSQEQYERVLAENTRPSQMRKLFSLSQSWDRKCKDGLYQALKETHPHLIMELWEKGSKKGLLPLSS
Chain of C-C chemokine receptor type 6 (P51684 whole entry): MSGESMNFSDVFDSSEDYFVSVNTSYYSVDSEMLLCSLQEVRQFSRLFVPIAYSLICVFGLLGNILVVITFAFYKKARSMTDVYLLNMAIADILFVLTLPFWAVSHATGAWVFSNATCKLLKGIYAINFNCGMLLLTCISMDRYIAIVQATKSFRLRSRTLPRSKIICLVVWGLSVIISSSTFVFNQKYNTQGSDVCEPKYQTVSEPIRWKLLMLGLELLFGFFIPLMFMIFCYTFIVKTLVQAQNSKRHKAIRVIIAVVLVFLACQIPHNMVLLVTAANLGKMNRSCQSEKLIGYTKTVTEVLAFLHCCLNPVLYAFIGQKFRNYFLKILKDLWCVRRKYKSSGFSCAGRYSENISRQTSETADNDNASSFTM
Chain of Lysosomal acid glucosylceramidase (P04062 whole entry): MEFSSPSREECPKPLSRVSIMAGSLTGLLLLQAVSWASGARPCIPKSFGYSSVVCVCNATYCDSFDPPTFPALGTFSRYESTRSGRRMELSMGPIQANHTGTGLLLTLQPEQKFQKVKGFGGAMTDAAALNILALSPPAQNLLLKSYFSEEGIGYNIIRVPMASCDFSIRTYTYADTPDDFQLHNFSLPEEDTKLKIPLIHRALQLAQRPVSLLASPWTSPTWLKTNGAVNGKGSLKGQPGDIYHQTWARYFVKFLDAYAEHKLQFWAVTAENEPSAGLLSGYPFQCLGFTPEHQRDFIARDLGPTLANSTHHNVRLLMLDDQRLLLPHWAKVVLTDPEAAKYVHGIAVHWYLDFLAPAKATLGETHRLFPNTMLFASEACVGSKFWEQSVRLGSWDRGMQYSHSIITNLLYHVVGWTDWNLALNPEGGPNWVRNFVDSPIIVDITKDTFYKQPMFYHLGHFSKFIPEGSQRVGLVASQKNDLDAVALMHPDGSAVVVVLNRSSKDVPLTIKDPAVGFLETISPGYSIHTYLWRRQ
Chain of Melanin-concentrating hormone receptor 1 (Q99705 whole entry): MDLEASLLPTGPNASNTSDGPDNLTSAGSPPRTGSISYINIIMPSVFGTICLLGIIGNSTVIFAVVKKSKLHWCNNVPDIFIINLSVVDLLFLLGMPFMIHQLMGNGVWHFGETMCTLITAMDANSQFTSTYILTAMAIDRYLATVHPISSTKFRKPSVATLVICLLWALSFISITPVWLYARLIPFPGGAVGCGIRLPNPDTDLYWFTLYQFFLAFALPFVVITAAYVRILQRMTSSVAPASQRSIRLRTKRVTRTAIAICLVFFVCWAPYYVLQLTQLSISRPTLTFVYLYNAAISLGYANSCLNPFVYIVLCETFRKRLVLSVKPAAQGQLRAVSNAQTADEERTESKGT

Structure (SMILES): Cc1ccc(C(=O)c2cc([N+](=O)[O-])ccc2N2CCOCC2)c(C)c1
- EC50 (BJ [1]): 0.764 µM (active)
- EC50 (BJ [2]): 14.2 µM (active)
- IC50 (J774.A1): < 0.05 µM (inactive)
- EC50 (BJ [3]): 0.78 µM (inconclusive)
- EC50 [4]: 0.637 µM (active)
- IC50 [5]: > 80 µM (inactive)

Structure (SMILES): O=C1/C(=C/c2cccnc2)SC(=S)N1C1CCS(=O)(=O)C1 (stereo unspecified)
- EC50 [11]: 0.445 µM (active)
- IC50 (Saccharomyces cerevisiae): 49.1 µM (active)
- IC50 [12]: 33.8 µM (active)

Structure (SMILES): CC[N+]1(C)CCC(O)(/C=C/c2ccccc2)C(C(=O)/C=C/c2ccccc2)C1 (stereo unspecified)
- IC50 [13]: 39.9 µM (inactive)
- IC50 (Beta-galactosidase): > 66.6 µM (inactive)

Results, then the compound that gave them:

- IC50 [6]: 42.8 µM (not active)
- IC50 [7]: 18.9 µM (not active)
- AC50 [8]: 25.4 µM (active)
Structure (SMILES): Cc1ccc(N2C(=O)C3C4C=CC(CN=C(S)Nc5ccc(Cl)cc5)(O4)C3C2=O)cc1 (stereo unspecified)

- EC50 [9]: > 50 µM (not active)
Structure (SMILES): CC1(C)CC(=O)N(CC(=O)O)c2ccccc2S1

- IC50 [10]: > 100 µM (inactive)
Structure (SMILES): O=C(COc1ccccc1Cl)N1CCN(c2ccc([N+](=O)[O-])c(N3CCCCC3)c2)CC1
